Data: the NIST ThermoML archive (doi:10.1016/j.jct.2007.11.013)

Assay: xn = mol fraction of the nth substance listed
Conditions: Liquid, Bellows volumetry

CC(C)C [2-methylpropane] + CCCC
mass density [kg/m3]
Conditions	280 K	320 K	360 K	400 K	440 K
1000 kPa, x2 = 0.2656	580.73	530.15	–	–	–
1000 kPa, x2 = 0.4913	585.41	535.84	–	–	–
1000 kPa, x2 = 0.7508	589.56	541.44	–	–	–
2000 kPa, x2 = 0.2656	582.43	532.88	469.97	–	–
2000 kPa, x2 = 0.4913	586.92	538.41	478.17	–	–
2000 kPa, x2 = 0.7508	590.9	543.79	–	–	–
3000 kPa, x2 = 0.2656	583.92	535.39	475.52	–	–
3000 kPa, x2 = 0.4913	588.36	540.81	483.1	385.11	–
3000 kPa, x2 = 0.7508	592.32	546.12	490.53	402.2	–
5000 kPa, x2 = 0.2656	587.09	540.14	484.88	406.75	–
5000 kPa, x2 = 0.4913	591.12	545.4	491.8	417.26	–
5000 kPa, x2 = 0.7508	594.99	550.35	498.56	427.6	–
10000 kPa, x2 = 0.2656	593.89	550.53	502.82	446.63	376.07
10000 kPa, x2 = 0.4913	597.45	555.38	508.78	453.53	384.46
10000 kPa, x2 = 0.7508	601.36	559.85	514.37	460.33	393.12
20000 kPa, x2 = 0.2656	605.71	567.26	527.7	485.47	441.9
20000 kPa, x2 = 0.4913	608.98	571.45	532.51	490.78	447.31
20000 kPa, x2 = 0.7508	612.32	575.19	537.18	495.66	452.37
30000 kPa, x2 = 0.2656	615.41	580.65	545.48	509.52	474.54
30000 kPa, x2 = 0.4913	618.89	584.41	549.98	514.15	479.02
30000 kPa, x2 = 0.7508	621.81	587.77	554.09	518.42	483.18
40000 kPa, x2 = 0.2656	624.41	591.82	559.82	527.48	497.07
40000 kPa, x2 = 0.4913	627.45	595.5	563.9	531.91	501.25
40000 kPa, x2 = 0.7508	630.16	598.52	567.64	535.63	504.89
50000 kPa, x2 = 0.2656	632.48	601.55	571.85	542.19	514.8
50000 kPa, x2 = 0.4913	635.21	605.01	575.77	546.27	518.55
50000 kPa, x2 = 0.7508	637.79	607.82	579.14	549.67	521.88
60000 kPa, x2 = 0.2656	639.66	610.3	582.32	554.58	529.25
60000 kPa, x2 = 0.4913	642.4	613.74	586.24	558.4	532.82
60000 kPa, x2 = 0.7508	644.7	616.38	589.35	561.67	535.99
70000 kPa, x2 = 0.2656	646.31	618.47	591.65	565.35	541.79
70000 kPa, x2 = 0.4913	648.87	621.47	595.42	569.18	545.18
70000 kPa, x2 = 0.7508	650.96	623.97	598.27	572.18	548.23
80000 kPa, x2 = 0.2656	652.53	625.51	599.96	575	552.55
80000 kPa, x2 = 0.4913	654.98	628.69	603.53	578.67	556.07
80000 kPa, x2 = 0.7508	656.95	631.01	606.56	581.7	558.93
90000 kPa, x2 = 0.2656	658.15	632.18	607.66	583.7	562.49
90000 kPa, x2 = 0.4913	660.76	635.21	611.18	587.47	565.64
90000 kPa, x2 = 0.7508	662.63	637.49	613.96	590.11	568.41
100000 kPa, x2 = 0.2656	663.68	638.57	614.79	591.48	571.02
100000 kPa, x2 = 0.4913	666.14	641.34	618.14	595.11	574.54
100000 kPa, x2 = 0.7508	667.99	643.48	620.9	598.02	577.23
120000 kPa, x2 = 0.2656	673.84	649.73	627.56	605.85	586.73
120000 kPa, x2 = 0.4913	675.91	652.68	630.84	609.08	590.02
120000 kPa, x2 = 0.7508	677.69	654.79	633.4	611.77	592.51
140000 kPa, x2 = 0.2656	682.73	660.13	638.86	618.11	600.22
140000 kPa, x2 = 0.4913	685.03	662.76	642.02	621.57	603.26
140000 kPa, x2 = 0.7508	686.69	664.53	644.56	623.93	605.8
160000 kPa, x2 = 0.2656	691.28	669.26	649.01	628.97	612.2
160000 kPa, x2 = 0.4913	693.26	672	652.16	632.55	615.27
160000 kPa, x2 = 0.7508	694.86	673.62	654.38	634.89	617.59
180000 kPa, x2 = 0.2656	699.06	677.76	658.15	639.19	622.95
180000 kPa, x2 = 0.4913	700.72	680.38	661.25	642.45	625.93
180000 kPa, x2 = 0.7508	702.34	681.89	663.57	644.7	628.15
200000 kPa, x2 = 0.2656	706.05	685.47	666.71	648.34	632.67
200000 kPa, x2 = 0.4913	708	687.99	669.76	651.4	635.69
200000 kPa, x2 = 0.7508	709.43	689.51	672.02	653.9	637.8
